We go through 2 compounds from patent US20050090531A1, “MAG expression promoters” (priority 1999, published 2005).

Holding throughout (type): cell-based, rat
In test [1] the test system is myelination of axon in co-cultured DRG nerve cells and Schwann cells. As to the kind of experiment: Myelination of axon in co-culture of DRG nerve cells and Schwann cells (Sudan Black B myelin staining), Experimental Example 1. The note with it: 2 weeks of co-culture. The procedure: The preparation of nerve cell followed the method of Seung U. Kim (Experimental Protocols for Brain and Nerve—From cultured cell to functional analysis, ed. Katsuhiko Mikoshiba, Takao Shimizu, Yodosha). That is, an embryo was taken out from a 18-day pregnant female rat (Crj: CD(SD)IGS), from which dorsal spinal nerve root ganglia (hereinafter to be referred to as DRG) was removed under a stereoscopic microscope. DRG was treated with 0.25% trypsin and DNase I at 37° C. to disperse the cells. Adherent cells other than nerve cells were removed and the cells (5000 cells) were plated on a polylysine-coated plate. The cells were cultured in DMEM containing 10% FCS supplemented with the nerve growth factor (hereinafter to be referred to as NGF, 50 ng/ml) in a CO2 incubator. After 3 days of culture, the medium was changed to one containing Ara-C (1 μmol/l) to remove proliferative cells other than the nerve cells.
The preparation of Schwann cells followed the method of Ichiro Matsuoka (Springer Neuroscience Lab Manual 1, ed. Hiroshi Hatanaka, Springer-Verlag Tokyo). That is, the sciatic nerve of a neonatal rat (1 to 3 days postnatal, (Crj: CD(SD)IGS)) was removed under a stereoscopic microscope and adventitia was removed. By treating with trypsin/collagenase and DNase I in CMF-HBSS, the cells were dispersed. Using a culture flask, the cells were cultured in DMEM containing 10% FCS in a CO2 incubator. After culturing in a medium containing Ara-C, the cells were recovered and the cell suspension was treated successively with anti-Thy 1.1 and rabbit complement to remove cells other than the Schwann cells. Using a collagen-coated culture flask, the cells were cultured in DMEM containing 10% FCS in a CO2 incubator.
After 1 week from the start of the culture of DRG nerve cells, Schwann cells (20,000 cells) were plated on a plate in which DRG nerve cells had been cultured. he medium for co-culture was DMEM containing 2 μmol/l f forskolin, 50 ng/ml of NGF and 10% FCS. […]

Test [2] deals with myelin-related glycoprotein (MAG). Nature of the test: MAG expression in DRG nerve cell/Schwann cell co-culture by immunoblotting, concentration dependence, Experimental Example 2. To be noted: tested at 1, 3, 10 or 30 μmol/l, added every 2 days for 2 weeks; immunoblot, semi-quantitative. The procedure: According to the method described in Experimental Example 1, DRG nerve cells and Schwann cells were co-cultured. A DMSO solution containing the compound of the present invention (Y-128, 1, 3, 10 or 30 μmol/l) or ascorbic acid (50 μg/ml) as a positive control compound was added to the medium every 2 days for 2 weeks. As a negative control compound, the vehicle DMSO was added in the same manner. After 2 weeks from the start of the addition of the compound, the medium was removed and a sample buffer containing sodium dodecyl sulfate (SDS) was added to the well for solubilization of the cells.
A part thereof was separated by polyacrylamide gel electrophoresis and the migrated protein was transferred to a PVDF membrane. By immunoblotting and chemiluminescence, the objective protein was detected on an X ray film. A band detected at about 100 kDa migration was identified as a signal of myelin-related glycoprotein (MAG). The X ray film was scanned and the image was imported to a computer, and the expression of MAG was semi-quantitatively determined using an analysis software, ImageQuaNT (Molecular Dynamics). […] From the above-mentioned Experimental Example, it was clarified that the compound of the present invention (Y-128) increased the expression of MAG from the concentration of 3 μmol/l.

For test [3] the test system is unchanged. As to the kind of experiment: Time-course of MAG expression in DRG nerve cell/Schwann cell co-culture, Experimental Example 3. To be noted: 10 μmol/ml, added every 2 days. As to the method: According to the method described in Experimental Example 1, DRG nerve cells and Schwann cells were co- cultured. A DMSO solution containing the compound of the present invention (Y-128, […]) or ascorbic acid (50 μg/ml) as a positive control compound was added to the medium every 2 days. The medium DMSO was added in the same manner as was the negative control compound. In the same manner as in Experimental Example 2, MAG was quantitatively determined before addition of the compounds and 3, 6, 9, 12, 15 and 18 days after addition.

Molecules are shown by their SMILES.

Consider `Cc1ccc(-n2ccnc2)cc1[C@H](O)c1c(C)cc(C(=O)O)cc1C` [Y-128, (S)-4-[α-hydroxy-5-(1-imidazolyl)-2-methylbenzyl]-3,5-dimethylbenzoic acid], for which the “effect on myelination of axon (conclusion)” value in test [1] (3 μmol/l) is listed as “promoted myelination of axon”. The “wells in which axon was stained as deep as ascorbic acid addition group” value in test [1] (3 μmol/l, added every 2 or 3 days, Sudan Black B stain) was 5 wells out of 12 wells. For the same compound, the “concentration from which the expression of MAG was increased” value in test [2] was not below 3 µmol/L. Also, in test [3], the “time after addition at which the expression of MAG disappeared” value is listed as 18 days. Also, the “time-course changes of MAG expression compared with positive control ascorbic acid (50 μg/ml)” value in test [3] (up to 18 days) is “the same as that by the positive control compound, ascorbic acid”. In addition, the “time after addition at which expression of MAG was increased maximally” value in test [3] (measured 3, 6, 9, 12, 15 and 18 days after addition) was 6 days and 12 days.
As for `O=C1O[C@H]([C@@H](O)CO)C(O)=C1O` [ascorbic acid, reference compound], the “staining of axon (myelin stain)” value in test [1] (50 μg/ml, added every 2 or 3 days, 12 wells, Sudan Black B stain) was “axon was stained deep in every well”.
